# Experiments:
# EIU rats = experiment: Endotoxin-induced uveitis (EIU) in rats; assay type: in vivo, rat
# Description: Female Lewis rats (180-200 grams) were purchased from Charles River Laboratory. Rats were footpad-injected (hind left side) with either 100 μl of 1 mg/ml LPS (Sigma) solution (in sterile pyrogen-free saline) or 150 μl of sterile pyrogen-free saline. Animals were sacrificed at 24 hours following LPS injection. Aqueous humor was collected and analyzed to determine inflammatory cell counts, levels of cytokines and chemokine concentration as well as total protein concentrations. Blood leukocyte differentiation and histopathology were also determined if required.
# EAAU rats = experiment: Experimental autoimmune anterior uveitis (EAAU) in rats; assay type: in vivo, rat
# Description: Male Lewis rats (180-200 g) were immunized by a single left hind-footpad injection with 150, μg (in 100 μL) of purified MAA complex from bovine eye. MAA proteins were suspended in phosphate-buffered saline (PBS, pH7.2) and emulsified (1:1 v/v) in complete Freund's adjuvant (CFA, VWR Scientific) containing 1 μg/100 μl of Pertussis Toxin (PTx) emulsion mixture. Control animals were injected with PBS emulsified with CFA and PTx.
# Assessment of intraocular inflammation was conducted starting day 7 after immunization, Animals were examined every other day between day 7 and 19 post-immunization for clinical signs and symptoms of uveitis using slit lamp microscopy. Aqueous humor was collected to evaluate the number of inflammatory cells and protein levels. Cell counts were done with 10 ul with a hemocytometer under the light microscope. Protein concentration was measured with a Protein assay solution from Bio-Rad, using BSA as the protein standard. Pro-inflammatory cytokine and chemokine levels were measured on Luminex (Biosource-Invitrogen, Carlsbad, Calif.). Blood, spleen, and eyes were harvested on days 11, 14, and 19 to determine blood leukocyte differentiation, splenic T cell activation status via Flow cytometry, as well as histopathology.
# tear TNF-alpha and IL17 = experiment: Dry eye desiccating stress in mice, adoptive transfer of CD4+ T cells, recipient tear cytokines; assay type: in vivo; conditions: donor mice treated 3 mg/kg/day for 10 days during desiccating stress; CD4+ T cells transferred to nude mice, FIG. 11
# From the text: C57BL/6 (C57BL/6NTac) and B6.Cg/NTac-Foxn1nuNE9 were purchased from Taconic, Inc. (Germantown, N.Y.). Mice were used at 6-10 weeks of age. Animal studies approval was obtained from the Allergan Animal Care and Use Committee. All studies adhered to the Association for Research in Vision and Ophthalmology statement for the Use of Animals in Ophthalmic and Vision Research. As described in the literature dry eye was induced by treating mice with subcutaneous injections of scopolamine hydrobromide (0.5 mg/0.2 ml; Sigma-Aldrich, St. Louis, Mo.) three times a day alternating between the left and right flanks (Neiderkorn et al, 2006). […] Histological analysis was done by staining […] samples with antibody to CD4 and H&E staining to quantify goblet cells and T cells in the conjunctiva. […]
# The levels of cytokines were measured with a sensitive, fluorescent multiplex immunobead assay (Luminex; Biosource-Invitrogen, Carlsbad, Calif.). […] Cytokine levels in samples were analyzed by using the corresponding Millipore cytokine Beadmate pairs. […] Beads were washed, resuspended in 125 μl of Beadlyte buffer, and analyzed by Luminex 100 instrument (Luminex Corporation, Austin, Tex.). The mean fluorescence intensities obtained from 50 beads per cytokine minimum were analyzed using Upstate Beadview software. […]
structure (smiles),measurement,setting,value
CCC1=CC(Cc2c[nH]cn2)CCC1 (centres unmarked) [Compound B],protein exudation in the aqueous humor,"EIU rats; 1 mg/kg/day by osmotic minipump, vs untreated or vehicle-treated (saline) controls, FIG. 9",significantly inhibited
same,decrease on blood lymphocyte populations as a result of LPS stimulation,EIU rats; FIG. 10,significantly normalized
same,increase in blood neutrophils as a result of LPS stimulation,EIU rats; FIG. 10,significantly normalized
same,anterior inflammation,EAAU rats; 1 mg/kg/day from days 1-18 or days 7-18 following EAAU induction (3 days oral TID then osmotic minipump),effective in partially abrogating
same,CD4+ T cell population in the spleen,EAAU rats; EAAU rats,normalized
same,lymphocyte populations in the blood,EAAU rats; EAAU rats,normalized
same,neutrophil cell counts in the blood,EAAU rats; EAAU rats,decreased
same,clinical scores of anterior uveitis,"EAAU rats; EAAU rats, FIG. 8",decreased
same,inflammatory cell numbers in the aqueous humor,"EAAU rats; EAAU rats, FIG. 8",decreased
same,recipient tear level of IL-17,tear TNF-alpha and IL17,significantly reduced
same,recipient tear level of TNFα,tear TNF-alpha and IL17,significantly reduced

# Source: patent US10251865B2, “Method of activating regulatory T cells with alpha-2B adrenergic receptor agonists” (Allergan, Inc., priority 2010, dated 2019)
